Assay [1] addresses RPE (Homo sapiens, UniProt Q96AT9). The assay is described as follows: direct LC-MS/MS profiling of modified tryptic peptides. It counts as cell-based. The note with it: covalent at Cys5; H358 cells, […] AMG510, […] h (methods print […] h).
Assay [2] deals with T1, PLOD3 (Homo sapiens, UniProt O60568).
T1 sequence (O60568 25-738): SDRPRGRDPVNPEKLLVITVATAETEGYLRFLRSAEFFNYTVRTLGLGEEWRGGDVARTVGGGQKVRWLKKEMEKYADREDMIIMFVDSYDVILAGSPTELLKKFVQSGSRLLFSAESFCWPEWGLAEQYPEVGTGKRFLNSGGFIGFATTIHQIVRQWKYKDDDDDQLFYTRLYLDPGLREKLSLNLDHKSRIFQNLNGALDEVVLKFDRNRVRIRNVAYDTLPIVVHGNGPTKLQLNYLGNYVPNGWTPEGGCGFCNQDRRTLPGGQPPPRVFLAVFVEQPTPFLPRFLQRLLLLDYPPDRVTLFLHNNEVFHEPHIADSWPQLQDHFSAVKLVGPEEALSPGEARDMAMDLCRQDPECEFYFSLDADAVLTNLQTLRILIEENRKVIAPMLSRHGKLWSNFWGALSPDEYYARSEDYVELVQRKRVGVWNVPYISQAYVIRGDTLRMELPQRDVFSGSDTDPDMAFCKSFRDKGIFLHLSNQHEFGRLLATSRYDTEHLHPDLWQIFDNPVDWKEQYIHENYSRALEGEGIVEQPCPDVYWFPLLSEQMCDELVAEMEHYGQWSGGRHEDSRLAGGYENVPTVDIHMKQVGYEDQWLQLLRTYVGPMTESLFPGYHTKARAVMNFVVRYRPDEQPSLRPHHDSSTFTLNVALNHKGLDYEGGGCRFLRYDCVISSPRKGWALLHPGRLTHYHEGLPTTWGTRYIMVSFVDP
The assay is described as above. The following applies: covalent at Cys691; H358 cells, […] AMG510, […] h (methods print […] h). It counts as cell-based.

Assay [3] concerns the target T2, HMOX2 (Homo sapiens, UniProt P30519).
T2 sequence (P30519 2-316): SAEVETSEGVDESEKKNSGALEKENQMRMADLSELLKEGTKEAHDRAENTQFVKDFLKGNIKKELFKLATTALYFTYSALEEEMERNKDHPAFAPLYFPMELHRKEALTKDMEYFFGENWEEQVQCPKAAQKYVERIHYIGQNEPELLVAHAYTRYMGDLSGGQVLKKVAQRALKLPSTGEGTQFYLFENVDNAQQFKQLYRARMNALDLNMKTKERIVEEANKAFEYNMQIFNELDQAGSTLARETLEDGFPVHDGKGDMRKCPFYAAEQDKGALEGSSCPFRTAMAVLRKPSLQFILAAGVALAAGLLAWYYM
Described as above. It counts as cell-based. The following applies: covalent at Cys282; H358 cells, […] AMG510, […] h (methods print […] h).

The target in assay [4] is T3, UBE2O (Homo sapiens, UniProt Q9C0C9).
T3 sequence (Q9C0C9 1-1292): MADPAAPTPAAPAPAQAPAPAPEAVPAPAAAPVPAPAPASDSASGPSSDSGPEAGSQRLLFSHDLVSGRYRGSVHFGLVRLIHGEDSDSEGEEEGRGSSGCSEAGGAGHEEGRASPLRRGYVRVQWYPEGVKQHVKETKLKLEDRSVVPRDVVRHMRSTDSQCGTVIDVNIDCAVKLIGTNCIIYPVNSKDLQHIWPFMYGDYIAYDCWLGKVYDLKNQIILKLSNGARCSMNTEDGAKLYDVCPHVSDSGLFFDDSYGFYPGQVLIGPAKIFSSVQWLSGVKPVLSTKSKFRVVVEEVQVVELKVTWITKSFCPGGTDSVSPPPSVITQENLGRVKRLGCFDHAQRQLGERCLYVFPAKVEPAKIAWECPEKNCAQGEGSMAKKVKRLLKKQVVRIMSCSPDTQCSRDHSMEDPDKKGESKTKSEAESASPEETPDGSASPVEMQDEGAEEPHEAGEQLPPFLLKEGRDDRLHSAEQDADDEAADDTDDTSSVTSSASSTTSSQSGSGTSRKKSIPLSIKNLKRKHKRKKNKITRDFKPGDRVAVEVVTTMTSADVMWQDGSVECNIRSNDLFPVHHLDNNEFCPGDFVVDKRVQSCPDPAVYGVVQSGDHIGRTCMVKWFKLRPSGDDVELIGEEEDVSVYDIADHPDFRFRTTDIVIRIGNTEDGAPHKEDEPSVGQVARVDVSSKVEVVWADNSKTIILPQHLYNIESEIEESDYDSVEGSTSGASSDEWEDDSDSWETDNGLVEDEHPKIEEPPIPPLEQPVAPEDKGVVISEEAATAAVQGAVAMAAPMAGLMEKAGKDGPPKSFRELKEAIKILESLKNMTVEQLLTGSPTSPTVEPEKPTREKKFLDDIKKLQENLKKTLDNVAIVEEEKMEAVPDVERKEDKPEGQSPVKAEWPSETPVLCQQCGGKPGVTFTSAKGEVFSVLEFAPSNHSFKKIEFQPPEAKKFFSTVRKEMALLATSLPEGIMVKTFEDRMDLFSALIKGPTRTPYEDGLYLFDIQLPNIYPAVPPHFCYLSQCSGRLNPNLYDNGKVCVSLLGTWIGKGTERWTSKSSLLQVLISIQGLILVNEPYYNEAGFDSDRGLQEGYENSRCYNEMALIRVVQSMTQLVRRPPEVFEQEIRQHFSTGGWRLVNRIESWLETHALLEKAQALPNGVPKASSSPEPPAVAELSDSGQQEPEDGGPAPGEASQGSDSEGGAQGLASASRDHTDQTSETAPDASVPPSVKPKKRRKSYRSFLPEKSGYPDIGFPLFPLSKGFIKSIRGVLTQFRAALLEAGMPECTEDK
The assay is described as above. It counts as cell-based. The note with it: covalent at Cys370; H358 cells, […] AMG510, […] h (methods print […] h).

Assay [5] concerns the target Ank2; ANK2 (Mus musculus, UniProt Q8C8R3). Nature of the assay: anti-AMG510 peptide IP and LC-MS/MS of heart tissue. The note with it: covalent at Cys3737; mice dosed orally […] mg/kg/day for […] days.
In assay [6] the target is HSPD1 (Homo sapiens, UniProt P10809). The assay is described as follows: direct LC-MS/MS profiling of modified tryptic peptides. Format: cell-based. The following applies: covalent at Cys237; H358 cells, […] AMG510, […] h (methods print […] h).
Chain of HSPD1 (P10809 27-573): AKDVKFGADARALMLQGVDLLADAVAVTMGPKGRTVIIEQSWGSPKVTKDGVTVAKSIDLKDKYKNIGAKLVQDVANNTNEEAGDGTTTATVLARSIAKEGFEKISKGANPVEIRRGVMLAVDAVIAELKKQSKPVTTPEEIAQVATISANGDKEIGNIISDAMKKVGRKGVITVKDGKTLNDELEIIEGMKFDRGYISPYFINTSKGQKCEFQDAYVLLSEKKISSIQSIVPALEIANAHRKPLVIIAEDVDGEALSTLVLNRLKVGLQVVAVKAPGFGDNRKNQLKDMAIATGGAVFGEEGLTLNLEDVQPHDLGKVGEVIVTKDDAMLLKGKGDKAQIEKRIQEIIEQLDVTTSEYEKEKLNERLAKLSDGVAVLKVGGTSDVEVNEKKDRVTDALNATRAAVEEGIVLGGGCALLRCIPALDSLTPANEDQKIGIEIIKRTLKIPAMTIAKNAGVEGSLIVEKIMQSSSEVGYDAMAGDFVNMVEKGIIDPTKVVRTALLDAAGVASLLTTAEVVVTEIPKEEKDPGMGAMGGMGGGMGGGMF

Chain of Ank2; ANK2 (Q8C8R3 whole entry): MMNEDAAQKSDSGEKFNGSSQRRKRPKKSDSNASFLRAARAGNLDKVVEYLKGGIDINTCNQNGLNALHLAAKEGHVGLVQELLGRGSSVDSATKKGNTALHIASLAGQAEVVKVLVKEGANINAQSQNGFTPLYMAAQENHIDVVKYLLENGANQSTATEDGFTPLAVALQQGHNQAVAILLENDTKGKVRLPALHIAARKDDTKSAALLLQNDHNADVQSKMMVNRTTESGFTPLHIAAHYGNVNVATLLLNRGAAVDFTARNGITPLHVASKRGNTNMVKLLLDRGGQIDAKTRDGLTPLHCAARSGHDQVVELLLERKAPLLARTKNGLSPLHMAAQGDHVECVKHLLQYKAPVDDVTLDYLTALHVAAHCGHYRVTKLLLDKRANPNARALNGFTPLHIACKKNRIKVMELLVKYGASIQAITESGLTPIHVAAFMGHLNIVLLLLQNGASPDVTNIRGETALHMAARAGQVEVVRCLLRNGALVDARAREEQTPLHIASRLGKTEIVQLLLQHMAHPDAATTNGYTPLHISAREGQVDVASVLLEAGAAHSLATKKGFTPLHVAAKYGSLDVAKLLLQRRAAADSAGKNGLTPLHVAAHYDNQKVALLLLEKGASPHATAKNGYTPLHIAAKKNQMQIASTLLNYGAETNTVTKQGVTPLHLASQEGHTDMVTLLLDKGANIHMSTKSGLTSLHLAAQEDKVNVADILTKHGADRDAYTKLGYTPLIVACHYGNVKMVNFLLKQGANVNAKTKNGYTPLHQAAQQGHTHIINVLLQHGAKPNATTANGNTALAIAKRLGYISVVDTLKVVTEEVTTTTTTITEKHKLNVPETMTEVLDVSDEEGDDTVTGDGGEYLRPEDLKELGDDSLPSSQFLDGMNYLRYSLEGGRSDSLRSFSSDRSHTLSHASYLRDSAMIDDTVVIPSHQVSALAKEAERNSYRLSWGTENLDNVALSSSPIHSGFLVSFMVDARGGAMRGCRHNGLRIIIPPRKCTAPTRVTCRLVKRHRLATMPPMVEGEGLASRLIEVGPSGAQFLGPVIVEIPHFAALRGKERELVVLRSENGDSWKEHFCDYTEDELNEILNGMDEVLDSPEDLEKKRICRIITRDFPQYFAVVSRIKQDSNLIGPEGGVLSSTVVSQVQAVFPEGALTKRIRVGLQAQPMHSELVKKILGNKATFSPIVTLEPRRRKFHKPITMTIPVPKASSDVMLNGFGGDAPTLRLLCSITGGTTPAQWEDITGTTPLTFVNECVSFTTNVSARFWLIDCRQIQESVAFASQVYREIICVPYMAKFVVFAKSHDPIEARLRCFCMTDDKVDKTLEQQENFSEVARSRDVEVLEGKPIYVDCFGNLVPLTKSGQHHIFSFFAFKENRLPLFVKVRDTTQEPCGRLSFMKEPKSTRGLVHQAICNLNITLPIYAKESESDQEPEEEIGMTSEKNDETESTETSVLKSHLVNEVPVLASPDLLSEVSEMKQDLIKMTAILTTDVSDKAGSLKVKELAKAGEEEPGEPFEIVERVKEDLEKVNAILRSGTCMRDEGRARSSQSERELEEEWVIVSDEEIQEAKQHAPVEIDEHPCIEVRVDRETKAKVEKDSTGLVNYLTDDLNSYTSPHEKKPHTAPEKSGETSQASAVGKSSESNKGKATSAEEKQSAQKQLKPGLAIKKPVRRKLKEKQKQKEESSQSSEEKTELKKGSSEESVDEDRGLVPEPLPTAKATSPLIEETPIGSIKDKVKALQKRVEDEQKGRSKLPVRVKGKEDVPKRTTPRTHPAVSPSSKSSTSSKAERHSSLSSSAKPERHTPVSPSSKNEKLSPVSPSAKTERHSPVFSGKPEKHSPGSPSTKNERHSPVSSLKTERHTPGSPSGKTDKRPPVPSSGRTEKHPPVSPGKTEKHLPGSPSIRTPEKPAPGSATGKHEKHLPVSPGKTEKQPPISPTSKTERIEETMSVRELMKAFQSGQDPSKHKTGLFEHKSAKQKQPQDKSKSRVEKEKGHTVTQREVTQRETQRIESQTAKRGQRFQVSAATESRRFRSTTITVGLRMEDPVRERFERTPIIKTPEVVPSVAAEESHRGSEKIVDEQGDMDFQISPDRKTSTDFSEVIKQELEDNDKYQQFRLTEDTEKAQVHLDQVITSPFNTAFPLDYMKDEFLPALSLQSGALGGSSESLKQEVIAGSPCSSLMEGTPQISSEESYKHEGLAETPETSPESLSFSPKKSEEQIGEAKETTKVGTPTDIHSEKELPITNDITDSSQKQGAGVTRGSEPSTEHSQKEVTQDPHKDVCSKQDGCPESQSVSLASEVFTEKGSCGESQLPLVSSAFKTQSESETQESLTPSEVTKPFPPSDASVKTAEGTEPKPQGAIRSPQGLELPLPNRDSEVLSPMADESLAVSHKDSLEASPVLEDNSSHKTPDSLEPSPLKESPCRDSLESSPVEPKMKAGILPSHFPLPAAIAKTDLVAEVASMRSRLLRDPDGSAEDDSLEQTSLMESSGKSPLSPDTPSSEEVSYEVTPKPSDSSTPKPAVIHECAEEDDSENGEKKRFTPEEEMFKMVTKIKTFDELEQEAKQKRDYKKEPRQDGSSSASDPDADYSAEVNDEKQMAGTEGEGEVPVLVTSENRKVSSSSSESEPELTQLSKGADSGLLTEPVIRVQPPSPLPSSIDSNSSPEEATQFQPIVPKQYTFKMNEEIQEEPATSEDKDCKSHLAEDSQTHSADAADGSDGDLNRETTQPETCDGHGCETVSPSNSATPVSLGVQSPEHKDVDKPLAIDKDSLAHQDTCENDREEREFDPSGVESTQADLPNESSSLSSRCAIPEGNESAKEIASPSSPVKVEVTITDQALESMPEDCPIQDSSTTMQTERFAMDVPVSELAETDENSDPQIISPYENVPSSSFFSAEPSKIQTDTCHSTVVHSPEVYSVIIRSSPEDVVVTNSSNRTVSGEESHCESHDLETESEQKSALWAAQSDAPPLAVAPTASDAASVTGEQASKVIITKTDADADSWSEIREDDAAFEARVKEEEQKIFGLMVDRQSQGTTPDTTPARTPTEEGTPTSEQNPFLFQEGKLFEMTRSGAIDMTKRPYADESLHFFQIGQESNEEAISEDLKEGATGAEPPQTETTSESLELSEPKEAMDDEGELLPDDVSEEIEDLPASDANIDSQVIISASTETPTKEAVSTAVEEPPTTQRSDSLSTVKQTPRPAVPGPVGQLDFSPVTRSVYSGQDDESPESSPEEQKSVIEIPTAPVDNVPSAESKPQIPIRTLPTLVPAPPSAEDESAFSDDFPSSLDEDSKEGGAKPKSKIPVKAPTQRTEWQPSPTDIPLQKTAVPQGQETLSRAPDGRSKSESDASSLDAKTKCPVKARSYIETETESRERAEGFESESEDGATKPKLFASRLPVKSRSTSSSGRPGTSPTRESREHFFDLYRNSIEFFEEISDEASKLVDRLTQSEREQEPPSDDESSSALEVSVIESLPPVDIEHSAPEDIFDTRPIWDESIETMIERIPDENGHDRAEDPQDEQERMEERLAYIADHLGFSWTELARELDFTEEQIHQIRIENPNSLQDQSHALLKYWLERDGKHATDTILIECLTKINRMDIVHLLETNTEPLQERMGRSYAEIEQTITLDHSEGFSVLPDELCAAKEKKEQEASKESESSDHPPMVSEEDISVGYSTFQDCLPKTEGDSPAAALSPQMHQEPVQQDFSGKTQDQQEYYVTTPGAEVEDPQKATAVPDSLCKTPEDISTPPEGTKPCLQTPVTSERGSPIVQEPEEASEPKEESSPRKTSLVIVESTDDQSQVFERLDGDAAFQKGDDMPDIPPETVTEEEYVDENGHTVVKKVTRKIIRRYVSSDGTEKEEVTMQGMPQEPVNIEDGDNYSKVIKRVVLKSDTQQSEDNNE
Chain of RPE (Q96AT9 2-228): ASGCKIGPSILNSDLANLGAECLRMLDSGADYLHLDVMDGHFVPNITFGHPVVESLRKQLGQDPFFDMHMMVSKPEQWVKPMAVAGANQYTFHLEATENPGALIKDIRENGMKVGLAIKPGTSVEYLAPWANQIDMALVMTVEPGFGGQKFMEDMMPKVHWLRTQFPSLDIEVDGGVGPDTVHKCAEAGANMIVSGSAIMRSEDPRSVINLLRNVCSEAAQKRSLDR

`C=CC(=O)N1CCN(c2nc(=O)n(-c3c(C)ccnc3C(C)C)c3nc(-c4c(O)cccc4F)c(F)cc23)[C@@H](C)C1` [AMG510]: the “direct LC-MS/MS profiling of modified tryptic peptides” value in assay [1] is “They included enzymes (PLOD3 C691, RPE C5, SPTLC2 C99, UBE2O C370, and TK1 C3)”; in assay [2], “They included enzymes (PLOD3 C691, RPE C5, SPTLC2 C99, UBE2O C370, and TK1 C3)”; in assay [3], “off-targets that were identified in previous studies (RTN4 C1101 and HMOX2 C282)”; in assay [4], “They included enzymes (PLOD3 C691, RPE C5, SPTLC2 C99, UBE2O C370, and TK1 C3)”; in assay [6], “protein folding accessory protein (HSPD1 C237)”. For the same compound, in assay [5], the “anti-AMG510 peptide IP and LC-MS/MS of heart tissue” value is reported as “Ank2 was modified by AMG510 at Cys3737 in the mouse heart tissue”.

These data come from paper PMC9942120 (iScience, 2023).
